Results from ChEMBL document CHEMBL1201862, “PubChem BioAssay data set” (2004).
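Dose response: 5 concentrations. Exposure: 48 h. Format: 96-well plates. Endpoint: linear interpolation; highest concentration if not reached. GI50 = concentration required for 50% inhibition of growth.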 Calls of active or inactive are those of the source. No stated cut-off is given here; in the data, active = GI50 up to about 1.1 µM and inactive = higher.

Experiments:
Experiment in all cases: inhibition of tumour cell growth, NCI panel, 48 h
MDA-N = tested on: MDA-N
SNB-78 = tested on: SNB-78
DMS-273 = tested on: DMS-273
DLD-1 = tested on: DLD-1
LXFL 529 = tested on: LXFL 529
XF498 = tested on: XF498
HOP-18 = tested on: HOP-18
DMS-114 = tested on: DMS-114
RXF 631 = tested on: RXF 631

## CCN(CC)C(=O)CCCCCCCCC1CO1 (centres undefined)
MDA-N
  GI50: > 100 µM (inactive)

## Clc1nc2n(c1/C=C/c1cccs1)CCS2
MDA-N
  GI50: 36.5 µM (inactive)

## CCOC(OCC)C(CC)[Se]c1ccccc1[N+](=O)[O-] (centres undefined)
MDA-N
  GI50: 0.352 µM (active)
SNB-78
  GI50: 7.76 µM (inactive)
DMS-273
  GI50: 1.01 µM (active)
DLD-1
  GI50: 3.1 µM (inactive)
LXFL 529
  GI50: 4.39 µM (inactive)
XF498
  GI50: 2.92 µM (inactive)
HOP-18
  GI50: 11.8 µM (inactive)

## COC(=O)C1=C(C(=O)OC)C23CC4CCC2(C(=O)C1O3)C4(C)C (centres undefined)
DLD-1
  GI50: 57.1 µM (inactive)
LXFL 529
  GI50: > 100 µM (inactive)
XF498
  GI50: > 100 µM (inactive)
HOP-18
  GI50: 95.9 µM (inactive)

## COc1cc(C2S/C(=C/c3ccccc3)C(=O)N2c2ccccn2)cc(OC)c1OC (centres undefined)
MDA-N
  GI50: 14.1 µM (inactive)

## CSc1cc(-c2ccccn2)nc(-c2ccccn2)c1
MDA-N
  GI50: 0.452 µM (active)

## O=C1NC2=NN=C(c3ccc(Br)cc3)CN2NC12c1ccccc1-c1ccccc12
MDA-N
  GI50: > 100 µM (inactive)

## COc1cc2ccc1OCc1cccc(n1)COc1ccc(cc1OC)/C=N\CCNCCNCC/N=C\2
MDA-N
  GI50: > 100 µM (inactive)

## CN(C)c1nc(Oc2nc(N(C)C)nc(N(C)C)n2)nc(N(C)C)n1
DMS-114
  GI50: 51.4 µM (inactive)
SNB-78
  GI50: 61.4 µM (inactive)
DMS-273
  GI50: 61 µM (inactive)
DLD-1
  GI50: > 100 µM (inactive)
LXFL 529
  GI50: > 100 µM (inactive)
XF498
  GI50: 84.7 µM (inactive)
HOP-18
  GI50: > 100 µM (inactive)

## O=[N+]([O-])C(=C1NCCN1)/C(Cl)=C(/Cl)N1CCOCC1
MDA-N
  GI50: > 100 µM (inactive)

## COc1cc(=O)n2c3ccccc3n(C)c2c1C#N
MDA-N
  GI50: > 100 µM (inactive)

## CC1(C)CC(=O)C(CCC(=O)/C=C/c2ccccc2)C(=O)C1
MDA-N
  GI50: > 100 µM (inactive)

## NC(CC1=CS(=O)(=O)c2ccc(Cl)cc21)C(=O)O (centres undefined)
MDA-N
  GI50: > 100 µM (inactive)

## CCOC(=O)c1ccc(N2C(=O)/C(=C\OC)c3ccccc3C2=O)cc1
DMS-114
  GI50: 31.5 µM (inactive)
SNB-78
  GI50: 43.7 µM (inactive)
DMS-273
  GI50: 33.1 µM (inactive)
LXFL 529
  GI50: 23.6 µM (inactive)

## COC(=O)C1CCC(=S)N1C(=O)OCc1ccccc1 (centres undefined)
MDA-N
  GI50: > 100 µM (inactive)

## CN1C(=S)C(c2ccccc2)Sc2ccccc21 (centres undefined)
MDA-N
  GI50: 77.8 µM (inactive)

## N#CC(NNC(=O)c1ccccc1O)c1ccccc1 (centres undefined)
DMS-114
  GI50: 0.721 µM (active)
SNB-78
  GI50: 0.9 µM (active)
DMS-273
  GI50: 0.468 µM (active)
DLD-1
  GI50: 2.63 µM (inactive)
LXFL 529
  GI50: 0.652 µM (active)
HOP-18
  GI50: 12.6 µM (inactive)

## On1c(-c2ccccc2)c(-c2c(-c3ccccc3)n(O)c3ccccc23)c2ccccc21
DMS-114
  GI50: 24.7 µM (inactive)
SNB-78
  GI50: 35.7 µM (inactive)
DMS-273
  GI50: 39.6 µM (inactive)
DLD-1
  GI50: 54.6 µM (inactive)
LXFL 529
  GI50: 3.18 µM (inactive)
XF498
  GI50: 19.8 µM (inactive)
HOP-18
  GI50: 26.1 µM (inactive)

## O=C(O)[C@@]1(Cc2ccc(O)cc2)C[C@@H]2Cc3ccccc3N2N1
MDA-N
  GI50: > 100 µM (inactive)

## Cc1cccc2c(=O)c3cccc([C@H](C)C(=O)O)c3oc12
MDA-N
  GI50: > 100 µM (inactive)

## CCC(C#N)N(Cc1cccc(CN(C(C)=O)C(C#N)CC)c1)C(C)=O (centres undefined)
MDA-N
  GI50: > 100 µM (inactive)

## COc1ccc(Nc2nc(NNC(=O)Cc3ccccc3)nc(NNC(=O)c3ccncc3)n2)cc1
MDA-N
  GI50: > 10 µM (inactive)

## C[C@]12CC[C@H]3[C@@H](CC[C@]4(O)C[C@@H](O)CC[C@]34CO)[C@@]1(O)CC[C@@H]2C1=CC(=O)OC1 [STROPHANTHIDOL]
MDA-N
  GI50: 2.99 µM (inactive)

## C/C(=N\Nc1nc2ccccc2s1)c1cccc[n+]1[O-]
MDA-N
  GI50: 76.2 µM (inactive)

## O=P(Oc1ccc2ccccc2c1)(N1CC1)N1CC1
DMS-114
  GI50: 38.4 µM (inactive)
SNB-78
  GI50: > 100 µM (inactive)
DMS-273
  GI50: 6.21 µM (inactive)
DLD-1
  GI50: 92.3 µM (inactive)
LXFL 529
  GI50: > 100 µM (inactive)
XF498
  GI50: 17.7 µM (inactive)
HOP-18
  GI50: 22.6 µM (inactive)

## CCOC(=O)NC(=O)c1cn(CCN2CCN(C(=O)CCCCCCCCCCC(=O)N3CCN(CCn4cc(C(=O)NC(=O)OCC)c(=O)[nH]c4=O)CC3)CC2)c(=O)[nH]c1=O
DMS-114
  GI50: > 100 µM (inactive)
DLD-1
  GI50: > 100 µM (inactive)
LXFL 529
  GI50: > 100 µM (inactive)
XF498
  GI50: > 100 µM (inactive)
HOP-18
  GI50: > 100 µM (inactive)

## Clc1nc(NC23CC4CC(CC(C4)C2)C3)nc(NC23CC4CC(CC(C4)C2)C3)n1
MDA-N
  GI50: 46.8 µM (inactive)

## CCCc1c(C(=O)OCC)[nH]c(-c2ccc(-c3[nH]c(C(=O)OCC)c(CCC)c3C(=O)OCC)s2)c1C(=O)OCC
DMS-114
  GI50: 38.1 µM (inactive)
SNB-78
  GI50: > 100 µM (inactive)
DMS-273
  GI50: 30.7 µM (inactive)
DLD-1
  GI50: > 100 µM (inactive)
LXFL 529
  GI50: 33 µM (inactive)
XF498
  GI50: 27.3 µM (inactive)
HOP-18
  GI50: > 100 µM (inactive)

## O=C1Oc2cc3c(c4cccc1c24)OCN(c1ccc(Cl)cc1)C3
DMS-114
  GI50: 5.9 µM (inactive)
SNB-78
  GI50: > 100 µM (inactive)
DMS-273
  GI50: 0.423 µM (active)
DLD-1
  GI50: 5.42 µM (inactive)
LXFL 529
  GI50: 0.622 µM (active)
XF498
  GI50: 16.7 µM (inactive)
HOP-18
  GI50: 34 µM (inactive)

## O=C(Nc1ccccc1)N1C(c2ccccc2)=N[C@@H](c2ccccc2)[C@@H]1c1ccccc1
DMS-114
  GI50: 14.7 µM (inactive)
SNB-78
  GI50: 33.7 µM (inactive)
RXF 631
  GI50: 35.2 µM (inactive)
DLD-1
  GI50: 15.1 µM (inactive)
LXFL 529
  GI50: 15.6 µM (inactive)
HOP-18
  GI50: 18.9 µM (inactive)

## NCCN1C(=O)c2cc(Cl)c(Cl)cc2C1(O)c1ccc(Cl)cc1 (centres undefined)
MDA-N
  GI50: 1.85 µM (inactive)

## Nc1nc(Cl)cc(NCC2(CO)CCCC2)n1
MDA-N
  GI50: > 100 µM (inactive)

## CC(C)(C)[Si](C)(C)OCC1C=CC(n2cnc3c(N)ncnc32)O1 (centres undefined)
MDA-N
  GI50: 26.6 µM (inactive)
